Data published in patent US12459985B2, “G-protein-coupled receptor internal sensors” (THE REGENTS OF THE UNIVERSITY OF CALIFORNIA, priority 2016, dated 2025).

Biological target: Beta2AR with a cpGFP integrated into the third intracellular loop (Homo sapiens, UniProt P07550)
Conditions: saturating conditions (1 μM drug)

**Q.** How did the τ½ON (time constant of association) turn out when CNC[C@H](O)c1ccc(O)c(O)c1 [epinephrine] was run?
**A.** 17.1 s

**Q.** And the τ½OFF (time constant of dissociation)?
**A.** 235.34 s
